From ChEMBL document CHEMBL1201862, “PubChem BioAssay data set” (2004)
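Each compound was tested at five concentrations against cells in 96-well plates for 48 hours. GI50 = concentration required for 50% inhibition of growth.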 Active and inactive are the calls of the source. Cut-off read from the data, not from the text of the source: active = GI50 up to about 1.1 µM and inactive = higher.

What was measured:
Assay in all cases: NCI-60 cell line screen, 48 h
[1] = system: RPMI-8226
[2] = system: CCRF-CEM
[3] = system: SF-539
[4] = system: OVCAR-4
[5] = system: K562
[6] = system: OVCAR-3
[7] = system: ACHN
[8] = system: DLD-1
[9] = system: NCI-H460
[10] = system: XF498
[11] = system: HOP-62
[12] = system: M19-MEL
[13] = system: SNB-78
[14] = system: SF-295
[15] = system: A549
[16] = system: SK-MEL-28
[17] = system: M14
[18] = system: MOLT-4
[19] = system: UACC-257
[20] = system: SW-620
[21] = system: LOX IMVI
[22] = system: KM-20L2
[23] = system: SN12C
[24] = system: DMS-273
[25] = system: U-251
[26] = system: HCC 2998
[27] = system: SNB-75
[28] = system: A498
[29] = system: IGROV-1
[30] = system: SK-MEL-5
[31] = system: HOP-18
[32] = system: SK-OV-3
[33] = system: CAKI-1
[34] = system: RXF 393
[35] = system: EKVX
[36] = system: UACC-62
[37] = system: HCT-116
[38] = system: SNB-19
[39] = system: HOP-92
[40] = system: HL-60
[41] = system: LXFL 529
[42] = system: 786-0
[43] = system: HCT-15
[44] = system: RXF 631
[45] = system: OVCAR-8
[46] = system: NCI-H23
[47] = system: HT-29
[48] = system: DMS-114
[49] = system: TK-10
[50] = system: COLO 205
[51] = system: UO-31
[52] = system: OVCAR-5
[53] = system: NCI-H226
[54] = system: SK-MEL-2
[55] = system: Malme-3M
[56] = system: SF-268
[57] = system: SR
[58] = system: KM12
[59] = system: NCI-H522

COCCOCCOCCOc1cccc2c1C(=O)c1cccc(OCCOCCOCCOC)c1C2=O
GI50 [1]: 65.3 µM (inactive)
GI50 [2]: 40.1 µM (inactive)
GI50 [3]: > 100 µM (inactive)
GI50 [4]: > 100 µM (inactive)
GI50 [5]: 37.8 µM (inactive)
GI50 [6]: 92.5 µM (inactive)
GI50 [7]: > 100 µM (inactive)
GI50 [8]: > 100 µM (inactive)
GI50 [9]: 70.6 µM (inactive)
GI50 [10]: > 100 µM (inactive)
GI50 [11]: > 100 µM (inactive)
GI50 [12]: > 100 µM (inactive)
GI50 [13]: > 100 µM (inactive)
GI50 [14]: > 100 µM (inactive)
GI50 [15]: > 100 µM (inactive)
GI50 [16]: > 100 µM (inactive)
GI50 [17]: > 100 µM (inactive)
GI50 [18]: 71.8 µM (inactive)
GI50 [19]: > 100 µM (inactive)
GI50 [20]: > 100 µM (inactive)
GI50 [21]: 70.1 µM (inactive)
GI50 [22]: > 100 µM (inactive)
GI50 [23]: > 100 µM (inactive)
GI50 [24]: > 100 µM (inactive)
GI50 [25]: > 100 µM (inactive)
GI50 [26]: > 100 µM (inactive)
GI50 [27]: > 100 µM (inactive)
GI50 [28]: > 100 µM (inactive)
GI50 [29]: > 100 µM (inactive)
GI50 [30]: 81.5 µM (inactive)
GI50 [31]: > 100 µM (inactive)
GI50 [32]: > 100 µM (inactive)
GI50 [33]: > 100 µM (inactive)
GI50 [34]: 92.9 µM (inactive)
GI50 [35]: > 100 µM (inactive)
GI50 [36]: > 100 µM (inactive)
GI50 [37]: > 100 µM (inactive)
GI50 [38]: > 100 µM (inactive)
GI50 [39]: > 100 µM (inactive)
GI50 [40]: > 100 µM (inactive)
GI50 [41]: > 100 µM (inactive)
GI50 [42]: > 100 µM (inactive)
GI50 [43]: > 100 µM
GI50 [44]: > 100 µM (inactive)
GI50 [45]: > 100 µM (inactive)
GI50 [46]: > 100 µM (inactive)
GI50 [47]: > 100 µM (inactive)
GI50 [48]: > 100 µM (inactive)
GI50 [49]: > 100 µM (inactive)
GI50 [50]: > 100 µM (inactive)

COC12CC(O)=C(C(C)=O)C(=O)C1(C)c1c(OC(C)=O)c(C)c(O)c(C(C)=O)c1O2 (stereo unspecified)
GI50 [1]: 7.71 µM (inactive)
GI50 [2]: 8.41 µM (inactive)
GI50 [51]: 4.35 µM (inactive)
GI50 [52]: 31.9 µM (inactive)
GI50 [3]: 21.6 µM (inactive)
GI50 [4]: 18.7 µM (inactive)
GI50 [5]: 16.9 µM (inactive)
GI50 [6]: 14.1 µM (inactive)
GI50 [7]: 12.3 µM (inactive)
GI50 [9]: 13.2 µM (inactive)
GI50 [10]: 14.8 µM (inactive)
GI50 [11]: 22.8 µM (inactive)
GI50 [12]: 23.2 µM (inactive)
GI50 [13]: 27.7 µM (inactive)
GI50 [14]: 8.09 µM (inactive)
GI50 [15]: 9.44 µM (inactive)
GI50 [53]: 13.8 µM (inactive)
GI50 [16]: 16 µM (inactive)
GI50 [17]: 22.5 µM (inactive)
GI50 [18]: 18.6 µM (inactive)
GI50 [19]: 23.6 µM (inactive)
GI50 [20]: 22.7 µM (inactive)
GI50 [21]: 10.2 µM (inactive)
GI50 [22]: 16.7 µM (inactive)
GI50 [23]: 11.6 µM (inactive)
GI50 [25]: 9.25 µM (inactive)
GI50 [26]: 18.3 µM (inactive)
GI50 [27]: 16 µM (inactive)
GI50 [28]: 17.3 µM (inactive)
GI50 [29]: 7.89 µM (inactive)
GI50 [31]: 5.11 µM (inactive)
GI50 [33]: 15.7 µM (inactive)
GI50 [34]: 14.7 µM (inactive)
GI50 [35]: 31 µM (inactive)
GI50 [36]: 4.98 µM (inactive)
GI50 [37]: 21 µM (inactive)
GI50 [38]: 4.98 µM (inactive)
GI50 [39]: 18.4 µM (inactive)
GI50 [54]: 19 µM (inactive)
GI50 [40]: 15.8 µM (inactive)
GI50 [41]: 14.3 µM (inactive)
GI50 [42]: 18.9 µM (inactive)
GI50 [43]: 13.6 µM
GI50 [44]: 21.2 µM (inactive)
GI50 [45]: 10.8 µM (inactive)
GI50 [46]: 4.86 µM (inactive)
GI50 [47]: 20.5 µM (inactive)
GI50 [55]: 17.9 µM (inactive)
GI50 [48]: 21.3 µM (inactive)
GI50 [49]: 25.4 µM (inactive)
GI50 [56]: 23.6 µM (inactive)
GI50 [57]: 18.5 µM (inactive)
GI50 [58]: 12 µM (inactive)

O=C1NN=C(c2ccc([N+](=O)[O-])cc2)C1n1nc(-c2ccccc2)c2ccccc2c1=O (stereo unspecified)
GI50 [1]: > 48.6 µM (inactive)
GI50 [2]: > 65.5 µM (inactive)
GI50 [51]: > 100 µM (inactive)
GI50 [52]: > 100 µM (inactive)
GI50 [59]: > 100 µM (inactive)
GI50 [3]: > 100 µM (inactive)
GI50 [4]: > 100 µM (inactive)
GI50 [5]: > 54.5 µM (inactive)
GI50 [6]: > 100 µM (inactive)
GI50 [7]: > 100 µM (inactive)
GI50 [8]: > 50.7 µM (inactive)
GI50 [9]: > 92.5 µM (inactive)
GI50 [10]: > 100 µM (inactive)
GI50 [11]: > 100 µM (inactive)
GI50 [12]: > 100 µM (inactive)
GI50 [13]: > 100 µM (inactive)
GI50 [14]: > 100 µM (inactive)
GI50 [15]: > 80 µM (inactive)
GI50 [53]: > 100 µM (inactive)
GI50 [16]: > 100 µM (inactive)
GI50 [17]: > 100 µM (inactive)
GI50 [18]: > 94.2 µM (inactive)
GI50 [19]: > 100 µM (inactive)
GI50 [20]: > 34.2 µM (inactive)
GI50 [21]: > 76.9 µM (inactive)
GI50 [22]: > 100 µM (inactive)
GI50 [23]: > 100 µM (inactive)
GI50 [24]: > 46 µM (inactive)
GI50 [25]: > 95.7 µM (inactive)
GI50 [26]: > 100 µM (inactive)
GI50 [27]: > 95.5 µM (inactive)
GI50 [28]: > 100 µM (inactive)
GI50 [29]: > 100 µM (inactive)
GI50 [30]: > 100 µM (inactive)
GI50 [31]: > 100 µM (inactive)
GI50 [32]: > 100 µM (inactive)
GI50 [33]: > 100 µM (inactive)
GI50 [34]: > 100 µM (inactive)
GI50 [35]: > 100 µM (inactive)
GI50 [36]: > 100 µM (inactive)
GI50 [37]: > 63.8 µM (inactive)
GI50 [38]: > 100 µM (inactive)
GI50 [39]: > 100 µM (inactive)
GI50 [54]: > 100 µM (inactive)
GI50 [40]: > 45.6 µM (inactive)
GI50 [41]: > 100 µM (inactive)
GI50 [42]: > 100 µM (inactive)
GI50 [43]: > 45.2 µM
GI50 [44]: > 100 µM (inactive)
GI50 [45]: > 88.1 µM (inactive)
GI50 [46]: > 100 µM (inactive)
GI50 [47]: > 100 µM (inactive)
GI50 [55]: > 100 µM (inactive)
GI50 [49]: > 100 µM (inactive)
GI50 [56]: > 100 µM (inactive)
GI50 [57]: > 68.2 µM (inactive)
GI50 [58]: > 100 µM (inactive)
GI50 [50]: > 60.8 µM (inactive)
